In PubChem BioAssay (NCI):
Values joined by “and” are separate entries in the source; they are usually repeats but may differ in a detail not shown here. Equal entries are not always repeated.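 Five compound concentrations were applied to cells in 96-well plates for 48 hours; endpoints were derived by simple linear interpolation of the resulting dose-response curve. GI50 is the concentration that inhibits growth by half. The concentration for full growth arrest is given as TGI.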

Legend:
Test in all cases: NCI tumour cell line growth inhibition, 48 h
SF-539 CNS = test system: SF-539 CNS
SK-MEL-2 melanoma = test system: SK-MEL-2 melanoma
MOLT-4 leukemia = test system: MOLT-4 leukemia
HCC-2998 colon = test system: HCC-2998 colon
HCT-15 colon = test system: HCT-15 colon
IGROV1 ovarian = test system: IGROV1 ovarian
HL-60(TB) leukemia = test system: HL-60(TB) leukemia
RPMI-8226 leukemia = test system: RPMI-8226 leukemia
HOP-62 NSCLC = test system: HOP-62 NSCLC
BT-549 breast = test system: BT-549 breast

Structure (SMILES)	TGI (SF-539 CNS)	TGI (SK-MEL-2 melanoma)	TGI (MOLT-4 leukemia)	TGI (HCC-2998 colon)	TGI (HCT-15 colon)	TGI (IGROV1 ovarian)	TGI (HL-60(TB) leukemia)	TGI (RPMI-8226 leukemia)	TGI (HOP-62 NSCLC)	GI50 (SK-MEL-2 melanoma)	GI50 (HCC-2998 colon)	GI50 (HCT-15 colon)	GI50 (IGROV1 ovarian)	GI50 (HL-60(TB) leukemia)	GI50 (RPMI-8226 leukemia)	GI50 (HOP-62 NSCLC)	GI50 (SF-539 CNS)	GI50 (MOLT-4 leukemia)	GI50 (BT-549 breast)	TGI (BT-549 breast)
CC(C)c1ccccc1NC(=O)/C(Cl)=C1/Sc2ccccc2NC1=O	57.7 µM	37.8 µM	79.8 µM	93.3 µM	> 100 µM	> 100 µM	52.6 µM	58.8 µM	> 100 µM											
COc1ccc(Nc2nc3ccccc3nc2-c2cccs2)cc1	> 100 µM	> 100 µM	> 100 µM	> 100 µM	> 100 µM	> 100 µM	> 100 µM		> 100 µM											
CC1=C(C(=O)Nc2ccccc2C)C(/C=C/c2ccccc2)C(C(=O)Nc2ccccc2C)=C(C)N1	> 100 µM	> 100 µM		> 100 µM	> 100 µM	> 100 µM	> 100 µM		> 100 µM											
C[n+]1c2ccccc2cc2c(CNC(CCCN=C(N)N)C(=O)O)cccc21 (stereo not given)	2.66 µM and 2.91 µM	7.25 µM	0.852 µM	5.67 µM and 16.7 µM	1.44 µM and 2.52 µM	19.1 µM	0.488 µM and 0.882 µM	0.679 µM and 1.56 µM	6.88 µM and 22 µM	0.957 µM	5.14 µM	0.551 µM	4.09 µM	0.187 µM	0.327 µM	9.22 µM				
CCSc1nc(N)c2cn[nH]c2n1	> 100 µM	> 100 µM	> 100 µM		> 100 µM	> 100 µM		49.1 µM	> 100 µM	47.3 µM		41.7 µM	35.9 µM		21.3 µM	49 µM	43.6 µM	39.4 µM	52.1 µM	> 100 µM
CC(=O)[CH-]C(C)=O.[CH2-]C.[CH2-]C.[Tl+3]	> 100 µM	> 100 µM	> 100 µM	> 100 µM	> 100 µM	> 100 µM	> 100 µM	> 100 µM	> 100 µM	> 100 µM	> 100 µM	> 100 µM	> 100 µM	> 100 µM	> 100 µM	> 100 µM	> 100 µM	> 100 µM		
O=C1C2=C(c3ccccc31)C(c1ccccc1Cl)N1C(=O)CCSC1=N2 (stereo not given)	> 100 µM	> 100 µM	> 100 µM	> 100 µM	> 100 µM	> 100 µM	> 100 µM	> 100 µM	> 100 µM											
CC(=O)OC1COC(n2c(=S)n(-c3ccccc3)c(=O)c3cc(Br)ccc32)C(OC(C)=O)C1OC(C)=O (stereo not given)	77.7 µM	> 100 µM	> 100 µM	> 100 µM	> 100 µM	> 100 µM	> 100 µM	> 100 µM	47.5 µM											
Cn1c2ccccc2c2c(=O)c3ccccc3[nH]c21	> 100 µM	> 100 µM	> 100 µM		> 100 µM	> 100 µM	> 100 µM	91.7 µM	> 100 µM	> 100 µM		40.1 µM	64.3 µM	70.6 µM	29.6 µM	38.9 µM	34 µM	> 100 µM	73.3 µM	> 100 µM
